Earlier results as cited in patent US20050142194A1, “Composition comprising CS” (ALTERGON S.A., priority 2003, published 2005).

Experiments:
[1] = general statement of the prior art part
pepsin = conditions: prior art statement, middle of the twentieth century

Row | solubility in water [1] | Substance | action on the proteolytic activity of pepsin (pepsin)
1 | poorly soluble in water | chondroitin sulfate | clear inhibitory action
2 | poorly soluble in water | sodium chondroitin sulfate | 
